Measured values as given in ChEMBL document CHEMBL1201862, “PubChem BioAssay data set” (2004).
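Following 48 hours of exposure in 96-well plates, responses at five concentrations were used to interpolate endpoints linearly. Here, GI50 denotes the concentration required for 50% inhibition of growth.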 Active and inactive are the calls of the source. Cut-off read from the data, not from the text of the source: active = GI50 up to about 1.1 µM and inactive = higher.

Tests used:
Experiment in all cases: DTP human tumour cell line panel, 48 h
[1] = tested on: DLD-1
[2] = tested on: DMS-114
[3] = tested on: DMS-273
[4] = tested on: HOP-18
[5] = tested on: KM-20L2
[6] = tested on: LXFL 529
[7] = tested on: SNB-78
[8] = tested on: XF498
[9] = tested on: RXF 631

SMILES | GI50 [1] | GI50 [2] | GI50 [3] | GI50 [4] | GI50 [5] | GI50 [6] | GI50 [7] | GI50 [8] | GI50 [9]
Cc1ccccc1NC(=O)c1cc2cc(/N=N/c3ccccc3C(=O)O)ccc2oc1=O | 16.7 µM (inactive) | 14.6 µM (inactive) | 21 µM (inactive) | 15 µM (inactive) | 16.9 µM (inactive) | – | – | – | –
COc1cc2c(c(OC)c1OC)C(=O)NCCC2 | > 100 µM (inactive) | > 100 µM (inactive) | > 100 µM (inactive) | > 100 µM (inactive) | > 100 µM (inactive) | > 100 µM (inactive) | > 100 µM (inactive) | > 100 µM (inactive) | –
CCCCOC(=O)NC(=O)c1cn(C2CCCCC2)c(=O)[nH]c1=O | 36.9 µM (inactive) | 39.8 µM (inactive) | > 100 µM (inactive) | 19.4 µM (inactive) | 76 µM (inactive) | 29 µM (inactive) | 36.6 µM (inactive) | 54.7 µM (inactive) | –
COc1ccccc1-n1c(N)c2c(C)c(-c3ccccc3)[nH]c2nc1=S | > 100 µM (inactive) | > 100 µM (inactive) | > 100 µM (inactive) | 4.04 µM (inactive) | 18.7 µM (inactive) | > 100 µM (inactive) | – | > 100 µM (inactive) | –
COc1ccc(OC2(c3cc(OC)ccc3OC)OC(=O)c3ccccc32)cc1 (configuration not stated) | > 100 µM (inactive) | > 100 µM (inactive) | > 100 µM (inactive) | > 100 µM (inactive) | > 100 µM (inactive) | > 100 µM (inactive) | > 100 µM (inactive) | – | > 100 µM (inactive)
CCOC(OC1=C(C#N)CCCC1)C(C)[Se]c1ccccc1 (configuration not stated) | 36.2 µM (inactive) | 4.29 µM (inactive) | 16.3 µM (inactive) | 38.5 µM (inactive) | 62.7 µM (inactive) | 22.7 µM (inactive) | > 100 µM (inactive) | 23.6 µM (inactive) | –
Cc1ccc(S(=O)(=O)OCC23CCC(CC2)C2CC23)cc1 (configuration not stated) | 74.1 µM (inactive) | 30.5 µM (inactive) | 30.1 µM (inactive) | > 100 µM (inactive) | 56.5 µM (inactive) | 68.2 µM (inactive) | – | – | 73.5 µM (inactive)
O=C1C=CC(=O)c2cc(Sc3ccccc3)c(=O)ccc21 | 13.6 µM (inactive) | 18.8 µM (inactive) | 18.9 µM (inactive) | 17.9 µM (inactive) | 20.2 µM (inactive) | 7.43 µM (inactive) | 20 µM (inactive) | – | 21.7 µM (inactive)
CCCCCCCCCCCCCC(=O)OC1C(CO)OC(=O)C1O (configuration not stated) | > 100 µM (inactive) | > 100 µM (inactive) | > 100 µM (inactive) | > 100 µM (inactive) | > 100 µM (inactive) | > 100 µM (inactive) | > 100 µM (inactive) | > 100 µM (inactive) | –
O=C(O)C1=C(C(=O)Nc2ccc(NC(=O)C3=C(C(=O)O)C4C=CC3C4)cc2)C2C=CC1C2 | > 100 µM (inactive) | > 100 µM (inactive) | > 100 µM (inactive) | > 100 µM (inactive) | > 100 µM (inactive) | > 100 µM (inactive) | > 100 µM (inactive) | > 100 µM (inactive) | –
CCc1cccc(C)c1NC(=O)CC1C(=O)Nc2ccccc2[S+]1[O-] (configuration not stated) | 47.6 µM (inactive) | – | 42.2 µM (inactive) | – | 30.5 µM (inactive) | 66.1 µM (inactive) | 45.2 µM (inactive) | 46.5 µM (inactive) | –
CN(C)CCC(/C=C/c1ccccc1)=N\Nc1ccc(Cl)cc1 | 2.88 µM (inactive) | 2.4 µM (inactive) | 2.11 µM (inactive) | 4.69 µM (inactive) | 1.56 µM (inactive) | 2.84 µM (inactive) | 6.07 µM (inactive) | – | –
Cn1c(=O)nc2n(-c3ccc(Cl)cc3)c(-c3ccccc3)c(-c3ccccc3)nc-2c1=O | 34 µM (inactive) | 28.1 µM (inactive) | 22.6 µM (inactive) | 57.9 µM (inactive) | 30.2 µM (inactive) | 27.7 µM (inactive) | 49.2 µM (inactive) | 12.9 µM (inactive) | 28.3 µM (inactive)
Cc1ccc(NC(=O)CC2C(=O)Nc3ccccc3[S+]2[O-])c(C)c1 (configuration not stated) | 15.3 µM (inactive) | 7.94 µM (inactive) | 6.15 µM (inactive) | 28.1 µM (inactive) | 12.3 µM (inactive) | 16.5 µM (inactive) | 16.4 µM (inactive) | 10.4 µM (inactive) | 17.2 µM (inactive)
CNc1nnnn1C1OC(CO)C(O)C1O (configuration not stated) | > 100 µM (inactive) | > 100 µM (inactive) | > 100 µM (inactive) | – | > 100 µM (inactive) | > 100 µM (inactive) | > 100 µM (inactive) | 14.2 µM (inactive) | > 100 µM (inactive)
N#Cc1c2c(c(N=[N+]=[N-])n3c1nc1ccccc13)CCCC2 | 1.39 µM (inactive) | 1.19 µM (inactive) | 2.37 µM (inactive) | – | 2.24 µM (inactive) | – | 3.56 µM (inactive) | 1.75 µM (inactive) | –
Cc1nc2c(n1Cc1ccc(Cl)cc1)C(=O)c1ccccc1C2=O | 4.18 µM (inactive) | – | 2.62 µM (inactive) | – | 8.05 µM (inactive) | 5.47 µM (inactive) | 9.42 µM (inactive) | 36.4 µM (inactive) | –
COC(=O)C(CCCN1C(=O)c2ccccc2C1=O)C(=O)OC | > 100 µM (inactive) | > 100 µM (inactive) | > 100 µM (inactive) | > 100 µM (inactive) | > 100 µM (inactive) | > 100 µM (inactive) | > 100 µM (inactive) | > 100 µM (inactive) | –
C=C1C(C)C2C(Cc3ccccc3)NC(=O)C23C(OC(C)=O)/C=C/C(C)(O)CC(C)C/C=C/C3C1O (configuration not stated) | 0.0796 µM (active) | 8.57 µM (inactive) | 6.1 µM (inactive) | 0.0324 µM (active) | 0.112 µM (active) | – | 0.0454 µM (active) | 0.973 µM (active) | –
CCN(CC)C(=O)CC12CCCCC1=Nc1ccccc12 (configuration not stated) | > 100 µM (inactive) | – | > 100 µM (inactive) | > 100 µM (inactive) | > 100 µM (inactive) | > 100 µM (inactive) | > 100 µM (inactive) | > 100 µM (inactive) | > 100 µM (inactive)
Cn1ccnc1Cn1cc(-c2cccc(-c3cn[nH]c3)c2)cn1 | > 100 µM (inactive) | > 100 µM (inactive) | > 100 µM (inactive) | – | > 100 µM (inactive) | 99.1 µM (inactive) | > 100 µM (inactive) | > 100 µM (inactive) | > 100 µM (inactive)
COc1cc(C2c3cc4c(cc3[C@@H](OCCN)[C@H]3COC(=O)C23)OCO4)cc(OC)c1O (some centres not stated) | 1.32 µM (inactive) | 0.0295 µM (active) | – | 1.77 µM (inactive) | 0.543 µM (active) | 0.776 µM (active) | 3.52 µM (inactive) | < 0.0347 µM (active) | –
COc1cc2c(cc1O)CN1CCC23C=C[C@@H](O)CC13 (some centres not stated) | 63 µM (inactive) | 54.5 µM (inactive) | 57.4 µM (inactive) | 71 µM (inactive) | > 100 µM (inactive) | 51.3 µM (inactive) | > 100 µM (inactive) | – | –
CC(C)=CC(=O)N(C)C1C2CN3CCC(O2)C13 (configuration not stated) | > 100 µM (inactive) | > 100 µM (inactive) | > 100 µM (inactive) | > 100 µM (inactive) | > 100 µM (inactive) | > 100 µM (inactive) | > 100 µM (inactive) | > 100 µM (inactive) | –
COC(=O)C1C=CCON2CCc3c(n(C)c4ccccc34)C12 (configuration not stated) | > 100 µM (inactive) | > 100 µM (inactive) | > 100 µM (inactive) | – | > 100 µM (inactive) | > 100 µM (inactive) | > 100 µM (inactive) | 42.1 µM (inactive) | > 100 µM (inactive)
O=C1C(c2ccc([N+](=O)[O-])cc2)=[N+]([O-])c2ccccc21 | 33.9 µM (inactive) | 10.7 µM (inactive) | > 10 µM (inactive) | < 0.01 µM (active) | – | 19.8 µM (inactive) | 22.5 µM (inactive) | – | –
COc1ccc(-c2cc(=O)c3c(O)c(O)c(OC)cc3o2)cc1O | > 100 µM (inactive) | – | > 100 µM (inactive) | > 100 µM (inactive) | > 100 µM (inactive) | > 100 µM (inactive) | – | > 100 µM (inactive) | 92 µM (inactive)
CC1=C2C(=CC(C)(C)[C@@H]2O)C(=O)[C@](C)(O)C12CC2 [ILLUDIN M] | 0.0138 µM (active) | 0.0251 µM (active) | 0.01 µM (active) | 0.0313 µM (active) | 0.0156 µM (active) | 0.022 µM (active) | – | 0.01 µM (active) | –
COC(=O)[C@H]1[C@H]2C[C@@H]3c4[nH]c5cc(OC)ccc5c4CCN3C[C@H]2C[C@@H](OC(=O)c2cc(OC)c(OC)c(OC)c2)[C@@H]1OC [RESERPINE] | 30.5 µM (inactive) | 15.6 µM (inactive) | 20 µM (inactive) | – | 16.7 µM (inactive) | 14.4 µM (inactive) | – | – | –
